# Data published in US9309248B2, “Azaindolines” (Hoffmann-La Roche Inc., priority 2012, dated 2016).
# Experiments:
# [1] = biological target: T1, BIR3 domain of XIAP (Homo sapiens, UniProt P98170); assay: TR-FRET assay for BIR3 (inhibition of binding of XIAP BIR3 domain to SMAC-derived Peptide A); settings: 6x Histidine-tagged BIR3 domain (amino acids 241-356 of XIAP) 10 nM, Peptide A 20 nM
# T1 construct: BIR3 domain, corresponding to amino acids 241-356 of XIAP
# Procedure: (§1) TR-FRET Assay for BIR2 and BIR3
# (§2) The ability of a test compound to inhibit the binding of BIR2 and/or BIR3 domains of the XIAP protein to Peptide A (a SMAC-derived peptide described below) evidences that the test compound acts as a SMAC-mimetic resulting in reactivation of a cell's apoptotic pathway.
# (§3) The peptides were labeled with the fluorescent tags FITC or TAMRA and Kd values were determined by fluorescence polarization assay. […] The peptide sequence was derivatized with biotin to provide […]-(ε-biotin)-OH 1:2 TFA as the substrate for the TR-FRET assay.
# The sequence of the BIR3 domain used for the TR-FRET assay is […]
# Ten nanomolar of 6× Histidine-tagged BIR2 domain, corresponding to amino acids 124-240 of XIAP, or BIR3 domain, corresponding to amino acids 241-356 of XIAP, was mixed with 20 nM of the peptide […]-(z-biotin)-OH 1:2 TFA, in the presence of 50 mM Tris-Cl, pH 7.5, 100 mM NaCl, 1 mM dithiothreitol (DTT) and 0.1 mg/mL bovine serum albumin (BSA). Following a […] incubation at 37° C., Europium-Streptavidin and Allophycocyanin conjugated anti-Histidine antibody were added to a final concentration of 1.5 nM and 15 nM, respectively. Time-resolved fluorescence resonance energy transfer (TR-FRET) signals were measured 1 hour later at room temperature. Test compound potency was assessed at 10 serially diluted concentrations. Percentage of inhibition at each concentration was determined to generate an IC50 value for each test compound.
# [2] = biological target: T2, BIR2 domain of XIAP (Homo sapiens, UniProt P98170, C202A/C213G); assay: TR-FRET assay for BIR2 (inhibition of binding of XIAP BIR2 domain to SMAC-derived Peptide A); settings: 6x Histidine-tagged BIR2 domain (amino acids 124-240 of XIAP) 10 nM, Peptide A 20 nM
# T2 construct: 6× Histidine-tagged BIR2 domain, corresponding to amino acids 124-240 of XIAP
# T2 sequence (P98170 with tags, fused parts or gaps C202A/C213G): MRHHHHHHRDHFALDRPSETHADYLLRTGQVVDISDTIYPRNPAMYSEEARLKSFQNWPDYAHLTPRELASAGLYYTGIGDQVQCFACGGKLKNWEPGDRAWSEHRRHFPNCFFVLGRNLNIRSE
# Procedure: as §1, §2, §3
# The XIAP protein sequence was obtained from the SWISS-PROT protein sequence database and the BIR2 and BIR3 domains were derived from that. The sequence of the BIR2 domain used for the TR-FRET assay is […].
# Time-resolved fluorescence resonance energy transfer (TR-FRET) signals were measured 1 hour later at room temperature. Test compound potency was assessed at 10 serially diluted concentrations. Percentage of inhibition at each concentration was determined to generate an IC50 value for each test compound.
# T1 sequence (P98170 with tags, fused parts or gaps): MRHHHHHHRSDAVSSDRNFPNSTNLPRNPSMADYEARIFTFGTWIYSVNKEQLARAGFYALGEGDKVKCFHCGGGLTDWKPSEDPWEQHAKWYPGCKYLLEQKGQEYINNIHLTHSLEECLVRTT
Compound,IC50 [1] [nM],IC50 [2] [nM]
"CN[C@@H](C)C(=O)N[C@H](C(=O)N1c2ncccc2C[C@H]1C(=O)Nc1ccc(C2CCNCC2)cc1)C(C)C [Example 41, (S)-1-[(S)-3-Methyl-2-((S)-2-methylamino-propionylamino)-butyryl]-2,3-dihydro-1H-pyrrolo[2,3-b]pyridine-2-carboxylic acid (4-piperidin-4-yl-phenyl)-amide]",> 54800,701
"CN[C@@H](C)C(=O)N[C@H](C(=O)N1c2ncccc2C[C@H]1C(=O)Nc1cc(C)cc(C)c1)C(C)C [Example 45, (S)-1-[(S)-3-Methyl-2-((S)-2-methylamino-propionylamino)-butyryl]-2,3-dihydro-1H-pyrrolo[2,3-b]pyridine-2-carboxylic acid (3,5-dimethyl-phenyl)-amide]",> 54800,304
"CN[C@@H](C)C(=O)N[C@H](C(=O)N1c2ncccc2C[C@H]1C(=O)Nc1ccc(OC)cc1F)C(C)C [Example 47, (S)-1-[(S)-3-Methyl-2-((S)-2-methylamino-propionylamino)-butyryl]-2,3-dihydro-1H-pyrrolo[2,3-b]pyridine-2-carboxylic acid (2-fluoro-4-methoxy-phenyl)-amide]",> 54800,4.29
"CN[C@@H](C)C(=O)N[C@H](C(=O)N1c2ncccc2C[C@H]1C(=O)Nc1ccc(C(=O)OC)cc1F)C(C)C [Example 49, 3-Fluoro-4-({(S)-1-[(S)-3-methyl-2-((S)-2-methylamino-propionylamino)-butyryl]-2,3-dihydro-1H-pyrrolo[2,3-b]pyridine-2-carbonyl}-amino)-benzoic acid methyl ester]",> 54800,102
"CN[C@@H](C)C(=O)N[C@H](C(=O)N1c2ncccc2C[C@H]1C(=O)Nc1ccc(S(C)(=O)=O)cc1F)C(C)C [Example 50, (S)-1-[(S)-3-Methyl-2-((S)-2-methylamino-propionylamino)-butyryl]-2,3-dihydro-1H-pyrrolo[2,3-b]pyridine-2-carboxylic acid (2-fluoro-4-methanesulfonyl-phenyl)-amide]",> 54800,89.3
"CN[C@@H](C)C(=O)N[C@H](C(=O)N1c2ncccc2C[C@H]1C(=O)NCCS(C)(=O)=O)C(C)C [Example 51, (S)-1-[(S)-3-Methyl-2-((S)-2-methylamino-propionylamino)-butyryl]-2,3-dihydro-1H-pyrrolo[2,3-b]pyridine-2-carboxylic acid (2-methanesulfonyl-ethyl)-amide]",> 54800,828
"CN[C@@H](C)C(=O)N[C@H](C(=O)N1c2ncccc2C[C@H]1C(=O)NC(C)c1ccccc1)C(C)C (stereo partly drawn) [Example 52, (S)-1-[(S)-3-Methyl-2-((S)-2-methylamino-propionylamino)-butyryl]-2,3-dihydro-1H-pyrrolo[2,3-b]pyridine-2-carboxylic acid (1-phenyl-ethyl)-amide]",21500,978
"CN[C@@H](C)C(=O)N[C@H](C(=O)N1c2ncccc2C[C@H]1C(=O)NC(C)(C)c1ccccc1)C(C)C [Example 54, (S)-1-[(S)-3-Methyl-2-((S)-2-methylamino-propionylamino)-butyryl]-2,3-dihydro-1H-pyrrolo[2,3-b]pyridine-2-carboxylic acid (1-methyl-1-phenyl-ethyl)-amide]",47400,4730
"CN[C@@H](C)C(=O)N[C@H](C(=O)N1c2ncccc2C[C@H]1C(=O)NCc1cc(F)ccc1C)C(C)C [Example 55, (S)-1-[(S)-3-Methyl-2-((S)-2-methylamino-propionylamino)-butyryl]-2,3-dihydro-1H-pyrrolo[2,3-b]pyridine-2-carboxylic acid 5-fluoro-2-methyl-benzylamide]",35300,139
"CN[C@@H](C)C(=O)N[C@H](C(=O)N1c2ncccc2C[C@H]1C(=O)Nc1cncnc1)C(C)C [Example 56, (S)-1-[(S)-3-Methyl-2-((S)-2-methylamino-propionylamino)-butyryl]-2,3-dihydro-1H-pyrrolo[2,3-b]pyridine-2-carboxylic acid pyrimidin-5-ylamide]",> 54800,1630
"CN[C@@H](C)C(=O)N[C@H](C(=O)N1c2ncccc2C[C@H]1C(=O)Nc1ccc2ccccc2c1)C(C)C [Example 57, (S)-1-[(S)-3-Methyl-2-((S)-2-methylamino-propionylamino)-butyryl]-2,3-dihydro-1H-pyrrolo[2,3-b]pyridine-2-carboxylic acid naphthalen-2-ylamide]",> 54800,164
"CN[C@@H](C)C(=O)N[C@H](C(=O)N1c2ncccc2C[C@H]1C(=O)Nc1ccc(C#N)cc1F)C(C)C [Example 58, (S)-1-[(S)-3-Methyl-2-((S)-2-methylamino-propionylamino)-butyryl]-2,3-dihydro-1H-pyrrolo[2,3-b]pyridine-2-carboxylic acid (4-cyano-2-fluoro-phenyl)-amide]",> 54800,140
"CN[C@@H](C)C(=O)N[C@H](C(=O)N1c2ncccc2C[C@H]1C(=O)Nc1cccc(F)c1F)C(C)C [Example 60, (S)-1-[(S)-3-Methyl-2-((S)-2-methylamino-propionylamino)-butyryl]-2,3-dihydro-1H-pyrrolo[2,3-b]pyridine-2-carboxylic acid (2,3-difluoro-phenyl)-amide]",> 54800,38.2
"CN[C@@H](C)C(=O)N[C@H](C(=O)N1c2ncccc2C[C@H]1C(=O)Nc1cc(F)ccc1F)C(C)C [Example 61, (S)-1-[(S)-3-Methyl-2-((S)-2-methylamino-propionylamino)-butyryl]-2,3-dihydro-1H-pyrrolo[2,3-b]pyridine-2-carboxylic acid (2,5-difluoro-phenyl)-amide]",> 54800,34.8

# Other lines, results leading:
IC50 [1] [nM],IC50 [2] [nM],Compound
> 54800,847,"CN[C@@H](C)C(=O)N[C@H](C(=O)N1c2ncccc2C[C@H]1C(=O)Nc1ccc(C(=O)c2ccccc2)cc1)C(C)C [Example 42, (S)-1-[(S)-3-Methyl-2-((S)-2-methylamino-propionylamino)-butyryl]-2,3-dihydro-1H-pyrrolo[2,3-b]pyridine-2-carboxylic acid (4-benzoyl-phenyl)-amide]"
> 54800,71.1,"CN[C@@H](C)C(=O)N[C@H](C(=O)N1c2ncccc2C[C@H]1C(=O)Nc1cccc(C)c1C)C(C)C [Example 43, (S)-1-[(S)-3-Methyl-2-((S)-2-methylamino-propionylamino)-butyryl]-2,3-dihydro-1H-pyrrolo[2,3-b]pyridine-2-carboxylic acid (2,3-dimethyl-phenyl)-amide]"
> 54800,3.8,"CN[C@@H](C)C(=O)N[C@H](C(=O)N1c2ncccc2C[C@H]1C(=O)Nc1cc(C)ccc1F)C(C)C [Example 44, (S)-1-[(S)-3-Methyl-2-((S)-2-methylamino-propionylamino)-butyryl]-2,3-dihydro-1H-pyrrolo[2,3-b]pyridine-2-carboxylic acid (2-fluoro-5-methyl-phenyl)-amide]"
> 54800,4.04,"CN[C@@H](C)C(=O)N[C@H](C(=O)N1c2ncccc2C[C@H]1C(=O)Nc1ccc(C)cc1F)C(C)C [Example 46, (S)-1-[(S)-3-Methyl-2-((S)-2-methylamino-propionylamino)-butyryl]-2,3-dihydro-1H-pyrrolo[2,3-b]pyridine-2-carboxylic acid (2-fluoro-4-methyl-phenyl)-amide]"
> 54800,54.9,"CN[C@@H](C)C(=O)N[C@H](C(=O)N1c2ncccc2C[C@H]1C(=O)Nc1ccccc1C#N)C(C)C [Example 48, (S)-1-[(S)-3-Methyl-2-((S)-2-methylamino-propionylamino)-butyryl]-2,3-dihydro-1H-pyrrolo[2,3-b]pyridine-2-carboxylic acid (2-cyano-phenyl)-amide]"
> 54800,740,"CN[C@@H](C)C(=O)N[C@H](C(=O)N1c2ncccc2C[C@H]1C(=O)NCCS(=O)(=O)N(C)C)C(C)C [Example 53, (S)-1-[(S)-3-Methyl-2-((S)-2-methylamino-propionylamino)-butyryl]-2,3-dihydro-1H-pyrrolo[2,3-b]pyridine-2-carboxylic acid (2-dimethylsulfamoyl-ethyl)-amide]"
> 54800,53.6,"CN[C@@H](C)C(=O)N[C@H](C(=O)N1c2ncccc2C[C@H]1C(=O)Nc1ccc(C(F)(F)F)cc1F)C(C)C [Example 59, (S)-1-[(S)-3-Methyl-2-((S)-2-methylamino-propionylamino)-butyryl]-2,3-dihydro-1H-pyrrolo[2,3-b]pyridine-2-carboxylic acid (2-fluoro-4-trifluoromethyl-phenyl)-amide]"
